What was measured:
Type in all cases: binding
Conditions in all cases: Compound Concentration 10 µM
panel of 442 kinases [1] = biological target: T1, panel of 442 kinases (Homo sapiens, UniProt Q04759)
T1 construct: purchased KINOMEscan
Description: (§1) We assessed the selectivity of members of this scaffold using the KINOMEscan methodology across a near comprehensive panel of 442 kinases [[18,27]].

panel of 442 kinases [2] = biological target: T2, panel of 442 kinases (Homo sapiens, UniProt P78356)
T2 construct: purchased KINOMEscan
T2 sequence (P78356 1-416): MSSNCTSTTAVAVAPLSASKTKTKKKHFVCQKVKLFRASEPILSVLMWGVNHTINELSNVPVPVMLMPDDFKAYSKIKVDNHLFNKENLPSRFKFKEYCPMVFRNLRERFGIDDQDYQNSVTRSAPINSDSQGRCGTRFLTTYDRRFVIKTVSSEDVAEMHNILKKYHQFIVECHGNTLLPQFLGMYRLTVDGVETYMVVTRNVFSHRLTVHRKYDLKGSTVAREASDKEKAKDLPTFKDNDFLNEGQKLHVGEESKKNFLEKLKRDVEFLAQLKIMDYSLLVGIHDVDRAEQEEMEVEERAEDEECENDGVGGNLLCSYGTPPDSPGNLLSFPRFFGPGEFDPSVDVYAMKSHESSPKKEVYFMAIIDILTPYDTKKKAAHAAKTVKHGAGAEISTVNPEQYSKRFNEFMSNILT
Description: as §1

panel of 442 kinases [3] = biological target: T3, panel of 442 kinases (Homo sapiens, UniProt P51955)
T3 construct: purchased KINOMEscan
T3 sequence (P51955 1-445): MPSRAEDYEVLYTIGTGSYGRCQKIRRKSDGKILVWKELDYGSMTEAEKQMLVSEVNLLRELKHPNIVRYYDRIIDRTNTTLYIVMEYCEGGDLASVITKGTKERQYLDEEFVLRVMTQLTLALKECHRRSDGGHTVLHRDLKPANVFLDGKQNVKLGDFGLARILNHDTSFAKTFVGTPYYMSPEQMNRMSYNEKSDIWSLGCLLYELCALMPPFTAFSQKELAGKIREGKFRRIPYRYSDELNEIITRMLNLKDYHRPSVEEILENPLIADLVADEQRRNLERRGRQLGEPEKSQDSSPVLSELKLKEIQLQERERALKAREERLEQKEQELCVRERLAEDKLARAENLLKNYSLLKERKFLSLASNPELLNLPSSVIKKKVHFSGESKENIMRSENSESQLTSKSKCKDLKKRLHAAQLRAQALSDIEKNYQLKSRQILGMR
Description: as §1

T1 sequence (Q04759 whole entry): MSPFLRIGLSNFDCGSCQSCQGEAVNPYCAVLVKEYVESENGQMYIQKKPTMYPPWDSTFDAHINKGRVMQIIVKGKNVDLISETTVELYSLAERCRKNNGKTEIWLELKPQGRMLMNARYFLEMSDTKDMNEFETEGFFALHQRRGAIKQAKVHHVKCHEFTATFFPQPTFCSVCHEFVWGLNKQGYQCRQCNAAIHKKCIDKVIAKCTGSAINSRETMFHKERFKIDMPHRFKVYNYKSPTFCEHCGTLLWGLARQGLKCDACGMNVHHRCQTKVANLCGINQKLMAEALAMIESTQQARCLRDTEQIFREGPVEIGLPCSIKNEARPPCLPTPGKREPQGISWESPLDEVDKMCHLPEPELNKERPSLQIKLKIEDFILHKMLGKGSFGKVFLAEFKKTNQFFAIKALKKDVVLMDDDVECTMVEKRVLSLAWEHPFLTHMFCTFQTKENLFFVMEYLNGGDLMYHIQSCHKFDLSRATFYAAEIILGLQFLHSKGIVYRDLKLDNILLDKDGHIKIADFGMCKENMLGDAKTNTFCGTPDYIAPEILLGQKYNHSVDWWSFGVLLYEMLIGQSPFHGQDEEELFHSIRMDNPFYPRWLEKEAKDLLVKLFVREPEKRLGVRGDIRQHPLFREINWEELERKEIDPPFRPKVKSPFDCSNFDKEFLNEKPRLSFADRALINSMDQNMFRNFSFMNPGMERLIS

With `CCOc1cc(C(=O)N2CCC(N3CCN(C)CC3)CC2)ccc1Nc1ncc2c(n1)N(C1CCCC1)c1ccccc1C(=O)N2C` [Compound 26] the “KINOMEscan: PRKCQ” value (panel of 442 kinases [1]) was 100, the “KINOMEscan: PIP5K2B” value (panel of 442 kinases [2]) was 100 and the “KINOMEscan: NEK2” value (panel of 442 kinases [3]) was 86.
With `COc1cc(C(=O)N2CCC(N3CCN(C)CC3)CC2)ccc1Nc1ncc2c(n1)N(C1CCCC1)c1ccccc1C(=O)N2C` [Compound 25, 11-cyclopentyl-2-((2-methoxy-4-(4-(4-methylpiperazin-1-yl)piperidine-1-carbonyl)phenyl)amino)-5-methyl-5H-benzo[e]pyrimido[5,4-b][1,4]diazepin-6(11H)-one] the “KINOMEscan: PRKCQ” value (panel of 442 kinases [1]) was 100, the “KINOMEscan: PIP5K2B” value (panel of 442 kinases [2]) was 100 and the “KINOMEscan: NEK2” value (panel of 442 kinases [3]) was 88.
For `COc1cc(C(=O)N2CCC(N3CCN(C)CC3)CC2)ccc1Nc1ncc2c(n1)N1CCc3cccc(c31)C(=O)N2C` [Compound 24], the “KINOMEscan: NEK2” value (panel of 442 kinases [3]) was 62.
In the case of `COc1cc(C(=O)N2CCC(N3CCN(C)CC3)CC2)ccc1Nc1ncc2c(n1)N(C)c1ccccc1C(=O)N2C` [15 (LRRK2-IN-1)], the “KINOMEscan: PRKCQ” value (panel of 442 kinases [1]) is reported as 100, the “KINOMEscan: PIP5K2B” value (panel of 442 kinases [2]) is reported as 100 and the “KINOMEscan: NEK2” value (panel of 442 kinases [3]) is reported as 100.

— paper PMC3914206
